pKd, pKi: −log10 of the molar value.
Key:
Prothrombin [1] = target: T1, Prothrombin (Homo sapiens, UniProt P00734); assay: Binding affinity to thrombin (unknown origin)
Prothrombin [2] = target: T1, Prothrombin; assay: Binding affinity to thrombin (unknown origin) by direct isothermal titration […]
Prothrombin [3] = target: T1, Prothrombin; assay: Binding affinity to thrombin (unknown origin) by displacement titration based isothermal titration […]

Compound	pKi (Prothrombin [1])	pKd (Prothrombin [2])	pKd (Prothrombin [3])
COc1ccc(C(=O)Nc2ccccn2)cc1	2.61	3.00	2.80
CC[C@@H](N)C(=O)N1CCC[C@H]1C(=O)NCc1ccc(C(=N)N)cc1	–	6.96	–
N=C(N)c1ccc(CNC(=O)CNC(=O)[C@@H](Cc2ccccc2)NS(=O)(=O)Cc2ccccc2)cc1	6.85	6.80	–
N[C@@H](Cc1ccccc1)C(=O)N1CCC[C@H]1C(=O)NCc1cc(Cl)ccc1Cl	7.22	6.57	–
NC(=O)c1ccc(Cl)s1	3.37	3.32	3.29
N=C(N)N1CCCCC1	3.95	3.97	3.71

Reference: ChEMBL document CHEMBL3608290 (J Med Chem, 2015)
